Activity calls are given as the source filed them. The rule behind the calls is not given here.
Key:
MCF7 [1] = test: Selectivity index, ratio of IC50 for mouse BALB/3T3 cells to IC50 for human MCF7 cells; type: functional
MCF7 [2] = test: Selectivity index, ratio of IC50 for HLMEC cells to IC50 for human MCF7 cells; type: functional
HT-29 [3] = test: Selectivity index, ratio of IC50 for mouse BALB/3T3 cells to IC50 for human HT-29 cells; type: functional
HT-29 [4] = test: Selectivity index, ratio of IC50 for HLMEC cells to IC50 for human HT-29 cells; type: functional
A549 [5] = test: Selectivity index, ratio of IC50 for mouse BALB/3T3 cells to IC50 for human A549 cells; type: functional
A549 [6] = test: Selectivity index, ratio of IC50 for HLMEC cells to IC50 for human A549 cells; type: functional
P388 [7] = test: Selectivity index, ratio of IC50 for mouse BALB/3T3 cells to IC50 for mouse P388 cells; type: functional
P388 [8] = test: Selectivity index, ratio of IC50 for HLMEC cells to IC50 for mouse P388 cells; type: functional
BALB/3T3 = test: Cytotoxicity against mouse BALB/3T3 cells after 72 hrs by SRB assay; type: cell-based; conditions: for IC50: Mus musculus, BALB/3T3, 72 h; for Activity: mouse, balb/3t3, 72 h
[9] = Cytotoxicity against HLMEC cells after 72 hrs by SRB assay; type: cell-based, Homo sapiens; conditions: for IC50: Homo sapiens, HLMEC; for Activity: human, hlmec
MCF7 [10] = test: Cytotoxicity against human MCF7 cells after 72 hrs by MTT assay; type: functional, cell-based; conditions: for IC50: MCF7, 72 h
HT-29 [11] = test: Cytotoxicity against human HT-29 cells after 72 hrs by MTT assay; type: functional, cell-based; conditions: for IC50: HT-29, 72 h
A549 [12] = test: Cytotoxicity against human A549 cells after 72 hrs by MTT assay; type: functional, cell-based; conditions: for IC50: A549, 72 h
P388 [13] = test: Cytotoxicity against mouse P388 cells after 72 hrs by MTT assay; type: functional, cell-based; conditions: for IC50: P388, 72 h

| Structure (SMILES) | Ratio IC50 (MCF7 [1]) | Ratio IC50 (MCF7 [2]) | Ratio IC50 (HT-29 [3]) | Ratio IC50 (HT-29 [4]) | Ratio IC50 (A549 [5]) | Ratio IC50 (A549 [6]) | Ratio IC50 (P388 [7]) | Ratio IC50 (P388 [8]) | IC50 (BALB/3T3) [µM] | IC50 [9] [µM] | IC50 (MCF7 [10]) [µM] | IC50 (HT-29 [11]) [µM] | IC50 (A549 [12]) [µM] | IC50 (P388 [13]) [µM] | Activity (BALB/3T3) | Activity [9] | Activity (MCF7 [10]) | Activity (HT-29 [11]) | Activity (A549 [12]) | Activity (P388 [13]) |
| --- | --- | --- | --- | --- | --- | --- | --- | --- | --- | --- | --- | --- | --- | --- | --- | --- | --- | --- | --- | --- |
| CC[C@@H](C(=O)[C@@H](C)[C@@H](O)[C@H](C)CCc1ccc(C)c(O)c1C(=O)O)[C@H]1O[C@](CC)([C@H]2CC[C@](O)(CC)[C@H](C)O2)C[C@@H]1C [LASALOCID] | 2.36 | 0.56 | 3.77 | 0.9 | 4.08 | 0.97 | 1.62 | 0.39 | 7.35 | 1.75 | 3.12 | 1.95 | 1.8 | 4.54 | – | – | – | – | – | – |
| CC[C@@H](C(=O)[C@@H](C)[C@@H](O)[C@H](C)CCc1ccc(C)c(O)c1CN(Cc1ccccc1)Cc1ccccc1)[C@H]1O[C@](CC)([C@H]2CC[C@](O)(CC)[C@H](C)O2)C[C@@H]1C | 4.17 | 0.25 | 1.02 | 0.06 | 2.09 | 0.13 | 18.72 | 1.12 | 76.9 | 4.61 | 18.4 | 75.6 | 36.8 | 4.11 | – | – | – | – | – | – |
| CCCN(CCC)Cc1c(CC[C@@H](C)[C@H](O)[C@H](C)C(=O)[C@H](CC)[C@H]2O[C@](CC)([C@H]3CC[C@](O)(CC)[C@H](C)O3)C[C@@H]2C)ccc(C)c1O | 4.04 | 0.73 | 3.23 | 0.59 | 4.29 | 0.78 | 6.35 | 1.15 | 22.7 | 4.12 | 5.62 | 7.03 | 5.3 | 3.58 | – | – | – | – | – | – |
| CCCCCCCCN(CCCCCCCC)Cc1c(CC[C@@H](C)[C@H](O)[C@H](C)C(=O)[C@H](CC)[C@H]2O[C@](CC)([C@H]3CC[C@](O)(CC)[C@H](C)O3)C[C@@H]2C)ccc(C)c1O | – | – | – | – | – | – | – | – | – | – | – | – | – | – | Non-toxic | Non-toxic | inactive | inactive | inactive | inactive |
| CCCCN(CCCC)Cc1c(CC[C@@H](C)[C@H](O)[C@H](C)C(=O)[C@H](CC)[C@H]2O[C@](CC)([C@H]3CC[C@](O)(CC)[C@H](C)O3)C[C@@H]2C)ccc(C)c1O | – | 0.73 | – | 0.63 | – | 0.84 | – | 0.69 | – | 4.43 | 6.11 | 7.02 | 5.27 | 6.35 | – | – | – | – | – | – |
| CC[C@@H](C(=O)[C@@H](C)[C@@H](O)[C@H](C)CCc1ccc(C)c(O)c1CN(C(C)C)C(C)C)[C@H]1O[C@](CC)([C@H]2CC[C@](O)(CC)[C@H](C)O2)C[C@@H]1C | 3.1 | 0.84 | 3.2 | 0.87 | 3.03 | 0.82 | 3.56 | 0.97 | 17.1 | 4.63 | 5.5 | 5.33 | 5.62 | 4.79 | – | – | – | – | – | – |
| CCCCCCCCCCCCN(CCCCCCCCCCCC)Cc1c(CC[C@@H](C)[C@H](O)[C@H](C)C(=O)[C@H](CC)[C@H]2O[C@](CC)([C@H]3CC[C@](O)(CC)[C@H](C)O3)C[C@@H]2C)ccc(C)c1O | – | – | – | – | – | – | – | – | – | – | – | – | – | – | Non-toxic | Non-toxic | inactive | inactive | inactive | inactive |
| CC[C@@H](C(=O)[C@@H](C)[C@@H](O)[C@H](C)CCc1ccc(C)c(O)c1CN1CCOCC1)[C@H]1O[C@](CC)([C@H]2CC[C@](O)(CC)[C@H](C)O2)C[C@@H]1C | 6.89 | 2.33 | 2.5 | 0.85 | 2.1 | 0.71 | 4.44 | 1.5 | 14.3 | 4.86 | 2.08 | 5.74 | 6.81 | 3.23 | – | – | – | – | – | – |

From ChEMBL document CHEMBL2417465, “One-pot synthesis and cytotoxicity studies of new Mannich base derivatives of polyether antibiotic--lasalocid acid” (Bioorg Med Chem Lett, 2013)
